Data reported in patent US11441144B2, “Methods of polynucleotide preparation using multivalent cation salt compositions” (Geron Corporation, priority 2015, dated 2022).

Assay: Solubility of precipitate in 0.1M NaOH
Format: physicochemical
Settings: salts precipitated in a large excess of salt reagent
Text: The crystallization or precipitation of divalent or trivalent forms of Imetelstat was investigated using a large excess of inorganic salts of interest (900 equivalents, weight base). […] Three types of Imetelstat solution: crude Imetelstat solution (ammonium salt), purified Imetelstat (triethylammonium (TEA) salt form), and Imetelstat sodium (Na salt form), were mixed with each salt solution.
The solubilities of the precipitates isolated under the conditions of large excess of salt regent were initially investigated using the following solvents: water, acetonitrile, MeOH, EtOH, IPA (isopropyl alcohol), 0.1M NaOH, 0.1M HCl, 1M NaCl, and NMP.
(see Table 2). Solubility studies of Imetelstat precipitate obtained from a large excess of magnesium salt reagent were conducted in 1M NaCl solutions at different concentrations (2 mg/mL to 6 mg/mL) and under different pH conditions (pH 8, 9, 10, 11, 12) and analyzed by HPLC (see chromatograms of FIG. 1).

BaCl2
Solubility in a 0.1M NaOH and 1M NaCl solution: soluble
